Reference: patent US20240238288A1, “ALDOSE REDUCTASE INHIBITORS FOR TREATING SORBITOL DEHYDROGENASE DEFICIENCY” (APPLIED THERAPEUTICS, INC., priority 2020, published 2024)

System: fibroblasts from patients with SDH deficiency (biallelic c.757delG)
Assay: Sorbitol levels in human fibroblasts from patients with sorbitol dehydrogenase deficiency treated with aldose reductase inhibitors
Assay type: cell-based
Conditions: for reduction of sorbitol levels in comparison to vehicle control: 72 hours, SDH-deficient patient fibroblasts, sorbitol by UPLC-MS/MS normalized to protein; for sorbitol levels in SORD fibroblasts (FIG. 1 legend): FIG. 1 histogram, SORD patient fibroblasts
Protocol: Fibroblasts were obtained from skin biopsy of normal human volunteers or patients with confirmed sorbitol dehydrogenase deficiency (biallelic c.757delG). Fibroblasts were cultured in triplicate in Dulbecco's modified Eagle's medium (ThermoFisher) supplemented with 10% fetal bovine serum, penicillin and streptomycin (Gibco). Cells were grown in 5% CO2 at 37° C. in a humidified incubator. Asynchronous cell cultures were grown to approximately 80% confluency, and then treated with vehicle, Compound A (100 uM) or Compound B (10 uM) for 72 hours. Th media containing vehicle, Compound A or Compound B, was changed every 24 hours.
Sorbitol and protein were determinated from lysates of human fibroblasts. For protein measurements, fibroblasts were collected and lysed in RIPA buffer (ThermoFisher) containing protease inhibitors (Roche) and sonicated for 5 minutes using a Bioruptor sonication device (Diagenode). Protein quantification was conducted using a Coomassie assay. For sorbitol determination, a UPLC-tandem mass spectrometry (MS/MS) (Waters Acquity UPLC & TQD mass spectrometer) was used, fibroblasts were collected and lysed in RIPA buffer (ThermoFisher) and sonicated for 5 minutes using a Bioruptor sonication device (Diagenode). Cell lysates were centrifuged 13,000 g for 10 minutes at 4° C., and the supernatants were collected for protein quantification and sorbitol measurement. For Sorbitol measurements, the lysate underwent protein precipitation with acetonitrile (1:5), tenfold dilution with acetonitrile/water (50:50) and cleanup on Oasis HLB cartridges (10 mg/ml), before injection (3 ul) into the UPLC system. The UPLC conditions were as follows: column: BHE amid 1.7 um (2.1×100 mm) at 88° C.; eluent A: acetonitrile 90%/water 5%/isopropanol 5%; eluent B: acetonitrile 80%/water 20%; gradient elution, 0 minutes 100% A to 3.6 minutes 100% B; flow rate of 0.45 ml/minute. The retention time of sorbitol was 2.7 minutes. The linearity of the method was assessed between 0.25 and 50 mgl^−1. The MS/MS conditions were as follows: interface, electrospray interface in negative ion mode; multiple reaction monitory acquisition, m z 180.0-88.9 (CV 24, CE 15). The detection limit (signal-to-noise ration=3) was 0.03 mgl^−1. Sorbitol levels were normalized to protein concentration.

Row | SMILES | reduction of sorbitol levels in comparison to vehicle control (10 uM) | sorbitol levels in SORD fibroblasts (FIG. 1 legend) | reduction of sorbitol levels in comparison to vehicle control (100 uM)
1 | O=C(O)Cc1nn(Cc2nc3cc(C(F)(F)F)ccc3s2)c(=O)c2cscc12 [Compound B] | 75% | reduces sorbitol levels | –
2 | O=C(O)Cc1nn(Cc2nc3cc(C(F)(F)F)ccc3s2)c(=O)c2nccnc12 [Compound A] | – | reduces sorbitol levels | 78%
